This is an account of results in patent US11191762B2, “Alkyl substituted triazole compounds as agonists of the APJ Receptor” (priority 2016, dated 2021).

In the assay the target is human APJ receptor (Homo sapiens (Human), UniProt P35414). In words: biochemical. In kind it is biochemical. To be noted: read-out: Activity hAPJ SPA EC50 IP. The protocol:
The human APJ receptor was cloned by polymerase chain reaction and the gene encoding the receptor was subcloned in pFLAG-CMV™-3 expression vector (Sigma, Saint Louis, Mo. USA) in-house at Amgen. A GTPγS binding assay was performed on membranes prepared from CHO cells stably expressing human APJ receptor. The optimum experimental conditions for the concentrations of GDP, MgCl2, and NaCl in the assay buffer were initially determined. The assay was performed in 9 μL assay buffer [20 mM HEPES, pH 7.5, 5 mM MgCl2, 100 mM NaCl and 0.1% (w/v) BSA], 1 μL of diluted test compound (starting with 0.75 mM, 2-fold serial dilution with DMSO, total 22 points), 10 μL of 18 µM GDP (final concentration of 3 μM GDP), 20 μL of […] membrane protein expressing human APJ receptor captured with WGA PS beads (final concentration of 5 μg per well), and 20 μL of 0.3 nM [^35S]GTPγS (final concentration is 0.1 nM [^35S]GTPγS)(Perkin Elmer Life and Analytical Sciences, Waltham USA).

Setting [1] is: [35S]GTPγS binding, membranes from CHO cells stably expressing human APJ receptor.

Read-outs that look alike come from different tables or passages of the source.

Chain of human APJ receptor (P35414 whole entry): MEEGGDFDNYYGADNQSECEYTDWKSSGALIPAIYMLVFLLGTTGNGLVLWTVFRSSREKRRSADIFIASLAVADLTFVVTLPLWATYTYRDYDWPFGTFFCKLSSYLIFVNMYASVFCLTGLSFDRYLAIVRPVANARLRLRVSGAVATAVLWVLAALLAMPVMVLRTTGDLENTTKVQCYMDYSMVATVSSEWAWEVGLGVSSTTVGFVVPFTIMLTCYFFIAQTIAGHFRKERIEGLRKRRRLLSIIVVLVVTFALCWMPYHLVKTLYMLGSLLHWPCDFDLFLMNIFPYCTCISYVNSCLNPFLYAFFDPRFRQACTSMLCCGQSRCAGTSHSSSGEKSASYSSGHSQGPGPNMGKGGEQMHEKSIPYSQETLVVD

Turning to `CCCCc1nnc(NS(=O)(=O)[C@@H](C)[C@H](OC)c2ncc(C)cn2)n1-c1c(OC)cccc1OC` [Example 175.0], under setting [1], the EC50 was 1.7 nM.
Take `COc1cccc(OC)c1-n1c(NS(=O)(=O)[C@@H](C)[C@H](C)c2ncc(C)cn2)nnc1-c1cccc2c1CC(=O)N2` [Example 16.0, (2S,3R)-N-(4-(2,6-dimethoxyphenyl)-5-(2-oxoindolin-4-yl)-4H-1,2,4-triazol-3-yl)-3-(5-methylpyrimidin-2-yl)butane-2-sulfonamide]: under setting [1], the EC50 amounted to 120 nM.
The same measure, in the same setting: next, `COc1cccc(OC)c1-n1c(Cc2ccc(C)cn2)nnc1NS(=O)(=O)[C@@H](C)[C@H](C)c1ncc(C)cn1` [Example 20.0, (2S,3R)-N-(4-(2,6-dimethoxyphenyl)-5-((5-methyl-2-pyridinyl)methyl)-4H-1,2,4-triazol-3-yl)-3-(5-methyl-2-pyrimidinyl)-2-butanesulfonamide]: above 4200 nM; `COc1ncnc(OC)c1-n1c(CC2COC2)nnc1NS(=O)(=O)[C@@H](C)[C@H](C)c1ncc(Cl)cn1` [Example 33.0, (2S,3R)-3-(5-chloro-2-pyrimidinyl)-N-(4-(4,6-dimethoxy-5-pyrimidinyl)-5-(3-oxetanylmethyl)-4H-1,2,4-triazol-3-yl)-2-butanesulfonamide]: 210 nM; `COc1cccc(OC)c1-n1c(NS(=O)(=O)[C@@H](C)[C@H](C)c2ncc(C)cn2)nnc1C(F)(F)c1ccccn1` [Example 137.0]: 230 nM.
Turning to “(S)-N-(4-(2,6-dimethoxyphenyl)-5-(methoxymethyl)-4H-1,2,4-triazol-3-yl)-1-(5-fluoropyrimidin-2-yl)piperidine-3-sulfonamide or (R)-N-(4-(2,6-dimethoxyphenyl)-5-(methoxymethyl)-4H-1,2,4-triazol-3-yl)-1-(5-fluoropyrimidin-2-yl)piperidine-3-sulfonamide [Example 77.0]”, the EC50 under setting [1] worked out at 176 nM.
`COc1cccc(OC)c1-n1c(NS(=O)(=O)[C@@H](C)[C@H](C)c2ncc(C)cn2)nnc1[C@H](OC)c1ccccc1` [Example 18.0, (2S,3R)-N-(4-(2,6-dimethoxyphenyl)-5-((R)-methoxy(phenyl)methyl)-4H-1,2,4-triazol-3-yl)-3-(5-methyl-2-pyrimidinyl)-2-butanesulfonamide]: the EC50 under setting [1] was determined as 240 nM.
On to `COc1cccc(OC)c1-n1c(Cc2cccs2)nnc1NS(=O)(=O)[C@@H](C)[C@H](C)c1ncc(Cl)cn1` [Example 43.0, (2S,3R)-3-(5-chloro-2-pyrimidinyl)-N-(4-(2,6-dimethoxyphenyl)-5-(2-thiophenylmethyl)-4H-1,2,4-triazol-3-yl)-2-butanesulfonamide], for which the EC50 under setting [1] turned out to be 2.7 nM.
The same measure, in the same setting: then `COc1cccc(OC)c1-n1c(CCN(C)C)nnc1NS(=O)(=O)[C@@H](C)[C@H](OC)c1ncc(C)cn1` [Example 51.0], with 520 nM; and `COc1cccc(OC)c1-n1c(Cc2ccccc2)nnc1NS(=O)(=O)[C@@H](C)[C@H](C)c1ncc(Cl)cn1` [Example 14.0, (2S,3R)-N-(5-benzyl-4-(2,6-dimethoxyphenyl)-4H-1,2,4-triazol-3-yl)-3-(5-chloro-2-pyrimidinyl)-2-butanesulfonamide], with 4.6 nM.
As for `COc1cccc(OC)c1-n1c(NS(=O)(=O)[C@@H](C)[C@H](C)c2ncc(Cl)cn2)nnc1[C@@H](O)c1ccccc1` [Example 13.0, (2S,3R)-3-(5-chloro-2-pyrimidinyl)-N-(4-(2,6-dimethoxyphenyl)-5-((S)-hydroxy(phenyl)methyl)-4H-1,2,4-triazol-3-yl)-2-butanesulfonamide], the EC50 under setting [1] was found to be 110 nM.
For `COc1cccc(OC)c1-n1c(Cc2ccncc2)nnc1NS(=O)(=O)[C@@H](C)[C@H](C)c1ncc(Cl)cn1` [Example 45.0, (2S,3R)-3-(5-chloro-2-pyrimidinyl)-N-(4-(2,6-dimethoxyphenyl)-5-(4-pyridinylmethyl)-4H-1,2,4-triazol-3-yl)-2-butanesulfonamide], under setting [1], the EC50 was determined as 1.7 nM.
Take `COc1ncnc(OC)c1-n1c(CC2CCC2)nnc1NS(=O)(=O)[C@@H](C)[C@H](OC)c1ncc(Cl)cn1` [Example 24.0, (1R,2S)-1-(5-chloro-2-pyrimidinyl)-N-(5-(cyclobutylmethyl)-4-(4,6-dimethoxy-5-pyrimidinyl)-4H-1,2,4-triazol-3-yl)-1-methoxy-2-propanesulfonamide]: under setting [1], the EC50 came to 1.5 nM.
Still for that read-out and setting: then `COCCn1c(COC)nnc1NS(=O)(=O)[C@@H](C)[C@H](OC)c1ncc(Cl)cn1` [Example 156.0], with 520 nM; and `COc1ncnc(OC)c1-n1c(CC2CCCC2)nnc1NS(=O)(=O)[C@@H](C)[C@H](OC)c1ncc(Cl)cn1` [Example 28.0, (1R,2S)-1-(5-chloro-2-pyrimidinyl)-N-(5-(cyclopentylmethyl)-4-(4,6-dimethoxy-5-pyrimidinyl)-4H-1,2,4-triazol-3-yl)-1-methoxy-2-propanesulfonamide], with 4.5 nM.
Regarding `COc1cccc(OC)c1-n1c(Cc2ccc(F)cc2)nnc1NS(=O)(=O)[C@@H](C)[C@H](OC)c1ncc(C)cn1` [Example 50.0], under setting [1], the EC50 amounted to 940 nM.
`COc1cccc(OC)c1-n1c(COC(C)C)nnc1NS(=O)(=O)[C@@H](C)[C@H](OC)c1ncc(Cl)cn1` [Example 69.0, (1R,2S)-1-(5-chloropyrimidin-2-yl)-N-(4-(2,6-dimethoxyphenyl)-5-(isopropoxymethyl)-4H-1,2,4-triazol-3-yl)-1-methoxypropane-2-sulfonamide]: the EC50 was 1.2 nM.
For the compound `COCc1nnc(NS(=O)(=O)[C@@H](C)[C@@H](OC(C)C)c2ncc(C)cn2)n1-c1c(OC)cccc1OC` [Example 62.0, (1S,2S)-N-(4-(2,6-dimethoxyphenyl)-5-(methoxymethyl)-4H-1,2,4-triazol-3-yl)-1-isopropoxy-1-(5-methylpyrimidin-2-yl)propane-2-sulfonamide], the EC50 stood at 1000 nM.
Same read-out and setting: then `COCc1nnc(NS(=O)(=O)[C@@H](C)[C@H](C)c2ncc(Cl)cn2)n1-c1c(OC)cccc1OC` [Example 10.0, (2S,3R)-3-(5-chloro-2-pyrimidinyl)-N-(4-(2,6-dimethoxyphenyl)-5-(methoxymethyl)-4H-1,2,4-triazol-3-yl)-2-butanesulfonamide], with 15 nM.
As for `COCc1nnc(NS(=O)(=O)[C@@H](C)[C@H](OC)c2ncc(C)cn2)n1-c1c(OC)cccc1OC` [Example 60.0, (1R,2S)-N-(4-(2.6-dimethoxyphenyl)-5-(methoxymethyl)-4H-1.2,4-triazol-3-yl)-1-methoxy-1-(5-methylpyrimidin-2-yl)propane-2-sulfonamide], the EC50 worked out at 22 nM.
In the case of `COCc1nnc(NS(=O)(=O)[C@@H](C)[C@H](OC)c2ncc(Cl)cn2)n1-c1c(Cl)cccc1Cl` [Example 157.0], the EC50 under setting [1] was above 12500 nM.
With `COCc1nnc(NS(=O)(=O)[C@@H](C)[C@@H](OC(C)C)c2ncc(C)cn2)n1-c1c(F)cccc1F` [Example 30.0, (1S,2S)-N-(4-(2,6-difluorophenyl)-5-(methoxymethyl)-4H-1,2,4-triazol-3-yl)-1-(1-methylethoxy)-1-(5-methyl-2-pyrimidinyl)-2-propanesulfonamide], the EC50 under setting [1] worked out at 240 nM.
The same measure, in the same setting: then `COCc1nnc(NS(=O)(=O)[C@@H](C)[C@H](C)c2ncc(Cl)cn2)n1-c1cc(OC)ccc1Cl` [Example 162.0], with 24 nM.
